US9365574B2, “Soluble guanylate cyclase activators” (Merck Sharp & Dohme Corp., priority 2010, dated 2016)

What follows are compounds tested on Spontaneously hypertensive rats (SHR) (assay: Acute Efficacy in Spontaneously Hypertensive Rats (SHR), telemetry blood pressure). Conditions: single oral dose 0.3 mpk P.O.
Type: in vivo, rat
Procedure, shortened: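 Male SHR with aortic telemetry catheters, 14-day recovery, conscious and freely moving; single oral gavage in 10% transcutol/20% Cremophor/70% water. BP sampled 30 s every 10 min, hourly averages minus prior-day vehicle baseline; value is maximum peak SBP decrease at stated mg/kg PO dose.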

Compound	Maximum peak decrease of systolic blood pressure (SBP) in SHR, Category
Nc1nc(-c2nn(CCC(F)(F)C(F)(F)F)c3ncccc23)nc2c1C(C(=O)NC1CC1)(C1CC1)C(=O)N2 (stereo not shown) [Example 242, 4-amino-N,5-dicyclopropyl-6-oxo-2-[1-(3,3,4,4,4-pentafluorobutyl)-1H-pyrazolo(3,4-b]pyridin-3-yl]-6,7-dihydro-5H-pyrrolo[2,3-d]pyrimidine-5-carboxamide]	B (Category B=SBP in SHRs 25-40 mmHg)
CC(C)C1(C(N)=O)C(=O)Nc2nc(-c3nn(CCC(F)(F)C(F)(F)F)c4ncccc34)nc(N)c21 (stereo not shown) [Example 244, 4-amino-5-(1-methylethyl)-6-oxo-2-(1-(3,3,4,4,4-pentafluorobutyl)-1H-pyrazolo[3,4-b]pyridin-3-yl]-6,7-dihydro-5H-pyrrolo[2,3-d]pyrimidine-5-carboxamide]	C (Category C=SBP in SHRs>40 mmHg)
Nc1nc(-c2nn(CCC(F)(F)F)c3ncccc23)nc2c1C(C(=O)NC1CC1)(C1CC1)C(=O)N2 (stereo not shown) [Example 245, 4-amino-N,5-dicyclopropyl-6-oxo-2-[1-(3,3,3-trifluoropropyl)-1H-pyrazolo[3,4-b]pyridin-3-yl]-6,7-dihydro-5H-pyrrolo[2,3-d]pyrimidine-5-carboxamide]	C (Category C=SBP in SHRs>40 mmHg)
Nc1nc(-c2nn(CCCC(F)(F)F)c3ncccc23)nc2c1C(C(=O)NC1CC1)(C1CC1)C(=O)N2 (stereo not shown) [Example 246, 4-amino-N,5-dicyclopropyl-6-oxo-2-[1-(4,4,4-trifluorobutyl)-1H-pyrazolo[3,4-b]pyridin-3-yl]-6,7-dihydro-5H-pyrrolo[2,3-d]pyrimidine-5-carboxamide]	C (Category C=SBP in SHRs>40 mmHg)
CC1(c2nc(C(F)(F)F)no2)C(=O)Nc2nc(-c3nc(CCCC(F)(F)F)n4cc(F)ccc34)nc(N)c21 (stereo not shown) [Example 248, 4-amino-2-[6-fluoro-3-(4,4,4-trifluorobutyl)imidazo[1,5-a]pyridin-1-yl]-5-methyl-5-[3-(trifluoromethyl)-1,2,4-oxadiazol-5-yl]-5,7-dihydro-6H-pyrrolo[2,3-d]pyrimidin-6-one]	B (Category B=SBP in SHRs 25-40 mmHg)
CC1(C(=O)NC2CC2)C(=O)Nc2nc(-c3nc(CCC(F)(F)C(F)(F)F)n4ncccc34)nc(N)c21 (stereo not shown) [Example 251, 4-amino-H-cyclopropyl-5-methyl-6-oxo-2-[7-(3,3,4,4,4-pentafluorobutyl)imidazo[1,5-b]pyridazin-5-yl]-6,7-dihydro-5H-pyrrolo[2,3-d]pyrimidine-5-carboxamide]	C (Category C=SBP in SHRs>40 mmHg)
CC1(C(=O)NC2CC2)C(=O)Nc2nc(-c3nc(CCC(F)(F)C(F)(F)F)n4cc(F)ccc34)nc(N)c21 (stereo not shown) [Example 252, 4-amino-H-cyclopropyl-2-[6-fluoro-3-(3,3,4,4,4-pentafluorobutyl)imidazo[1,5-a]pyridin-1-yl]-5-methyl-6-oxo-6,7-dihydro-5H-pyrrolo[2,3-d]pyrimidine-5-carboxamide]	B (Category B=SBP in SHRs 25-40 mmHg)
CC1(C(=O)Nc2cccnc2)C(=O)Nc2nc(-c3nc(CCC(F)(F)C(F)(F)F)n4cc(F)ccc34)nc(N)c21 (stereo not shown) [Example 253, 4-amino-2-[6-fluoro-3-(3,3,4,4,4-pentafluorobutyl)imidazo[1,5-a]pyridin-1-yl]-5-methyl-6-oxo-H-pyridin-3-yl-6,7-dihydro-5H-pyrrolo[2,3-d]pyrimidine-5-carboxamide]	A (Category A=SBP in SHRs<25 mmHg)
CC1(c2nnc(C3CC3)o2)C(=O)Nc2nc(-c3nc(CCC(F)(F)C(F)(F)F)n4ncccc34)nc(N)c21 (stereo not shown) [Example 255, 4-amino-5-(5-cyclopropyl-1,3,4-oxadiazol-2-yl)-5-methyl-2-[7-(3,3,4,4,4-pentafluorobutyl)imidazo[1,5-b]pyridazin-5-yl]-5,7-dihydro-6H-pyrrolo[2,3-d]pyrimidin-6-one]	B (Category B=SBP in SHRs 25-40 mmHg)
CC1(C(=O)NC2CC2)C(=O)Nc2nc(-c3nc(CCC(F)(F)F)n4ncccc34)nc(N)c21 (stereo not shown) [Example 256, 4-amino-H-cyclopropyl-5-methyl-6-oxo-2-[7-(3,3,3-trifluoropropyl)imidazo[1,5-b]pyridazin-5-yl]-6,7-dihydro-5H-pyrrolo[2,3-d]pyrimidine-5-carboxamide]	B (Category B=SBP in SHRs 25-40 mmHg)
CNc1nc(-c2nn(CCC(F)(F)C(F)(F)F)c3cc(Cl)ccc23)nc2c1C(C)(C(=O)NC1CC1)C(=O)N2 (stereo not shown) [Example 257, 2-[6-chloro-1-(3,3,4,4,4-pentafluorobutyl)-1H-indazol-3-yl)-N-cyclopropyl-5-methyl-4-(methylamino)-6-oxo-6,7-dihydro-5H-pyrrolo[2,3-d]pyrimidine-5-carboxamide]	A (Category A=SBP in SHRs<25 mmHg)
CNC(=O)C1(C)C(=O)Nc2nc(-c3nn(CCC(F)(F)C(F)(F)F)c4cc(Cl)ccc34)nc(NC)c21 (stereo not shown) [Example 258, 2-[6-chloro-1-(3,3,4,4,4-pentafluorobutyl)-1H-indazol-3-yl]-N,5-dimethyl-4-(methylamino)-6-oxo-6,7-dihydro-5H-pyrrolo[2,3-d]pyrimidine-5-carboxamide]	A (Category A=SBP in SHRs<25 mmHg)
CNC(=O)C1(C)C(=O)Nc2nc(-c3nn(CCC(F)(F)C(F)(F)F)c4ncccc34)nc(NC)c21 (stereo not shown) [Example 259, N,5-dimethyl-4-(methylamino)-6-oxo-2-[1-(3,3,4,4,4-pentafluorobutyl)-1H-pyrazolo[3,4-b]pyridin-3-yl]-6,7-dihydro-5H-pyrrolo[2,3-d]pyrimidine-5-carboxamide]	A (Category A=SBP in SHRs<25 mmHg)
CNc1nc(-c2nc(CCC(F)(F)C(F)(F)F)n3ncccc23)nc2c1C(C)(C(=O)NC1CC1)C(=O)N2 (stereo not shown) [Example 260, N-cyclopropyl-5-methyl-4-(methylamino)-6-oxo-2-[7-(3,3,4,4,4-pentafluorobutyl)imidazo[1,5-b]pyridazin-5-yl]-6,7-dihydro-5H-pyrrolo[2,3-d]pyrimidine-5-carboxamide]	B (Category B=SBP in SHRs 25-40 mmHg)
CNc1nc(-c2nn(CCC(F)(F)C(F)(F)F)c3ncccc23)nc2c1C(C)(c1nnc(C3CC3)o1)C(=O)N2 (stereo not shown) [Example 261, 5-(5-cyclopropyl-1,3,4-oxadiazol-2-yl)-5-methyl-4-(methylamino)-2-[1-(3,3,4,4,4-pentafluorobutyl)-1H-pyrazolo[3,4-b]pyridin-3-yl]-5,7-dihydro-6H-pyrrolo[2,3-d]pyrimidin-6-one]	C (Category C=SBP in SHRs>40 mmHg)
CNc1nc(-c2nn(CCC(F)(F)C(F)(F)F)c3ncccc23)nc2c1C(C(=O)NC1CC1)(C1CC1)C(=O)N2 (stereo not shown) [Example 262, N,5-dicyclopropyl-4-(methylamino)-6-oxo-2-[1-(3,3,4,4,4-pentafluorobutyl)-1H-pyrazolo[3,4-b]pyridin-3-yl]-6,7-dihydro-5H-pyrrolo[2,3-d]pyrimidine-5-carboxamide]	A (Category A=SBP in SHRs<25 mmHg)

Same assay, conditions: single oral dose 1 mpk P.O.

Compound	Maximum peak decrease of systolic blood pressure (SBP) in SHR, Category
CCC1(C(N)=O)C(=O)Nc2nc(-c3nn(CCC(F)(F)C(F)(F)F)c4ncccc34)nc(N)c21 (stereo not shown) [Example 241, 4-amino-5-ethyl-6-oxo-2-[1-(3,3,4,4,4-pentafluorobutyl)-1H-pyrazolo[3,4-b]pyridin-3-yl]-6,7-dihydro-5H-pyrrolo[2,3-d]pyrimidine-5-carboxamide]	B (Category B=SBP in SHRs 25-40 mmHg)
Nc1nc(-c2nn(CCC(F)(F)C(F)(F)F)c3ncccc23)nc2c1C(C(=O)NC1CC1)(C1CCCC1)C(=O)N2 (stereo not shown) [Example 243, 4-amino-5-cyclopentyl-N-cyclopropyl-6-oxo-2-[1-(3,3,4,4,4-pentafluorobutyl)-1H-pyrazolo[3,4-b]pyridin-3-yl]-6,7-dihydro-5H-pyrrolo[2,3-d]pyrimidine-5-carboxamide]	B (Category B=SBP in SHRs 25-40 mmHg)
NC(=O)C1(C2CC2)C(=O)Nc2nc(-c3nn(CCCC(F)(F)F)c4ncccc34)nc(N)c21 (stereo not shown) [Example 247, 4-amino-5-cyclopropyl-6-oxo-2-[1-(4,4,4-trifluorobutyl)-1H-pyrazolo[3,4-b]pyridin-3-yl]-6,7-dihydro-5H-pyrrolo[2,3-d]pyrimidine-5-carboxamide]	C (Category C=SBP in SHRs>40 mmHg)
Cc1nc(C2(C)C(=O)Nc3nc(-c4nc(CCCC(F)(F)F)n5cc(Cl)ccc45)nc(N)c32)no1 (stereo not shown) [Example 249, 4-amino-2-[6-chloro-3-(4,4,4-trifluorobutyl)imidazo[1,5-a]pyridin-1-yl]-5-methyl-5-(5-methyl-1,2,4-oxadiazol-3-yl)-5,7-dihydro-6H-pyrrolo[2,3-d]pyrimidin-6-one]	A (Category A=SBP in SHRs<25 mmHg)
CC1(C(=O)NC2CC2)C(=O)Nc2nc(-c3nc(CCC(F)(F)C(F)(F)F)n4cc(Cl)ccc34)nc(N)c21 (stereo not shown) [Example 250, 4-amino-2-[6-chloro-3-(3,3,4,4,4-pentafluorobutyl)imidazo[1,5-a]pyridin-1-yl]-H-cyclopropyl-5-methyl-6-oxo-6,7-dihydro-5H-pyrrolo[2,3-d]pyrimidine-5-carboxamide]	C (Category C=SBP in SHRs>40 mmHg)
CC1(C(N)=O)C(=O)Nc2nc(-c3nc(CCC(F)(F)C(F)(F)F)n4ncccc34)nc(N)c21 (stereo not shown) [Example 254, 4-amino-5-methyl-6-oxo-2-[7-(3,3,4,4,4-pentafluorobutyl)imidazo[1,5-b]pyridazin-5-yl]-6,7-dihydro-5H-pyrrolo[2,3-d]pyrimidine-5-carboxamide]	B (Category B=SBP in SHRs 25-40 mmHg)
